What was measured:
[1] = DPPH free radical scavenging activity; details: 20 min, room temperature, absorbance at 520 nm, triplicate
Protocol: The antioxidant potential was determined using the 1,1- diphenyl-2-picrylhydrazyl (DPPH) radical scavenging method with minor modifications. In a 96-well plate, 25 μL of compound solution of different concentrations were added, followed by the addition of 75 μL of 50% EtOH and 50 μL MES buffer (200 mM, pH = 6.0). Finally, 50 μL of freshly prepared DPPH solution in ethanol (800 μM) were added, and the assay plate was incubated for 20 min in the dark at room temperature. The antioxidant activity corresponding to scavenging of DPPH radicals was measured at 520 nm with UV spectrophotometer using the following formula: Radical scavenging activity (%) = 100 × (A − B)/A, where A is the control absorbance of DPPH radicals without samples and B is the absorbance after reacting with samples. Trolox was used as the positive control.
(§1) All the experiments were performed in triplicate. The data was analyzed using Microsoft Office Excel (2007) and results for DPPH free radical and in vitro enzyme inhibitory activities were expressed as IC50 value (μM).

[2] = molecular target: T1, porcine pancreatic lipase (Sus scrofa, UniProt P00591); assay: Pancreatic lipase inhibitory activity; assay type: biochemical; details: substrate 4-methylumbelliferyl oleate, pH 7.4, triplicate; for IC50: read-out: Enzyme Inhibitory Activities Lipase IC50
T1 construct: purchased Sigma Aldrich, Co. (Tokyo, Japan)
T1 sequence (P00591 1-450): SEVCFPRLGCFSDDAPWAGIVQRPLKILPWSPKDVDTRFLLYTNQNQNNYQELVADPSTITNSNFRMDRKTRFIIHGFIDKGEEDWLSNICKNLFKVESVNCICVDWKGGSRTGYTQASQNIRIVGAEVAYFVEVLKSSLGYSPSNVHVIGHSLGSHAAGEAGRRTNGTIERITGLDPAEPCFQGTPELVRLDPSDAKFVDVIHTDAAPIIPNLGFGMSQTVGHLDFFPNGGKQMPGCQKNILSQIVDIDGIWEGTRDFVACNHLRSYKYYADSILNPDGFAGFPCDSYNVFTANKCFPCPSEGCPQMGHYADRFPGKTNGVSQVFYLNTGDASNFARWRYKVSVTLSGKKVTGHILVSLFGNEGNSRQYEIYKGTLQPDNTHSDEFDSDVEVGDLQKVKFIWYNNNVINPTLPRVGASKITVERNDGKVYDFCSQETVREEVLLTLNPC
Excerpt: (§2) 1,1-Diphenyl-2-picrylhydrazyl (DPPH) and the enzymes α-glucosidase (from Saccharomyces cerevisiae), porcine pancreatic lipase, and mushroom tyrosinase were purchased from Sigma Aldrich, Co. (Tokyo, Japan). […] Cetilistat was obtained from Combi-Blocks, San Diego, USA, and arbutin was purchased from Nacalai Tesque, Inc. (Kyoto, Japan). 2-Morpholinoethanesulfonic acid monohydrate (MES) was purchased from Dojindo Chemical Research (Kumamoto, Japan).
Evaluation of pancreatic lipase inhibitory activity was performed by measuring the release of 4-methylumbelliferone (4MUF) from the substrate 4-methylumbelliferyl oleate (4MUFO) as reported by Bitou et al. with slight modifications. Briefly, 50 μL of the test sample and 50 μL of pancreatic lipase (100 μg/mL in phosphate buffer of 0.2 M, pH 7.4) were mixed and incubated at room temperature for 10 min. Afterward, 100 μL of the substrate 4MUFO (0.5 mM) was added. After 10 min, the fluorescence from the release of 4MUF was measured using a microplate reader with excitation and emission wavelengths of 355 and 460 nm, respectively. Cetilistat was used as the positive control. The percentage of pancreatic lipase inhibitory activity was calculated using the following equation: Inhibition (%) = (1 − (As/Ac) × 100), where As and Ac are the absorbance of sample and control, respectively.
as §1

[3] = test system: α-glucosidase; parameters: method as in PMID 27581205; details: cited from earlier work
[4] = molecular target: mushroom tyrosinase; assay: Tyrosinase inhibitory activity; assay type: biochemical, Agaricus bisporus; details: substrate L-tyrosine, 25 °C, pH 6.8, triplicate; read-out: Enzyme Inhibitory Activities Tyrosinase IC50
Excerpt: Antioxidants are substances that scavenge free radicals and related reactive species. Free radicals amend vital body composition such as lipids and proteins, resulting in serious conditions such as inflammatory conditions, atherosclerosis, and cancerous diseases. Therefore, dietary antioxidants are undertaken for enhancing health conditions for people under precarious sanitary conditions or to prevent serious and chronic illnesses such as neurodegenerative diseases, diabetes, and hyperlipidemia. Diabetes mellitus (DM) is a metabolic disorder characterized by high blood glucose, which is likely to cause serious side effects such as retinopathy and cataracts. […] Obesity is another example of a metabolic disorder associated with several co-morbidities, with an increasing prevalence every year. Excessive lipid accumulation could be one of the causative factors for type II diabetes, as the accumulation of lipid in the pancreas causes dysfunction of insulin-producing pancreatic β-cells. […] Tyrosinase is a key enzyme in the process of melanin synthesis. It has been isolated and identified from different sources. Among them, mushroom tyrosinase, from Agaricus bisporus, is a major source and is widely used due to its high similarity and homology to human tyrosinase. Despite the important protective role of melanin against UV-sunlight radiation, excess accumulation of this pigment results in harmful skin disorders and severe cases may cause skin cancer. […] (Tokyo, Japan). […] obtained from Combi-Blocks, San Diego, USA, and arbutin was purchased from Nacalai Tesque, Inc. (Kyoto, Japan). 2-Morpholinoethanesulfonic acid monohydrate (MES) was purchased from Dojindo Chemical Research (Kumamoto, Japan). The tyrosinase inhibitory activity was evaluated using the method reported by […] et al., with slight modifications. […] The mixture was incubated at 25 °C for 10 min. Finally, 20 μL of the substrate L-tyrosine (2 mM) were added, and the absorbance was measured at 476 nm. […] Arbutin was used as the positive control. […] All the experiments were performed in triplicate. The data was analyzed using Microsoft Office Excel (2007) and results for DPPH free radical and in vitro enzyme inhibitory activities were expressed as IC50 value (μM).

[5] = molecular target: α-glucosidase; assay: α-Glucosidase inhibitory activity; assay type: biochemical, Saccharomyces cerevisiae; details: substrate p-nitrophenyl-α-D-glucopyranoside, 37 °C, pH 6.8, triplicate; for IC50: read-out: Enzyme Inhibitory Activities α-Glucosidase IC50
Excerpt: as §2
The α-glucosidase inhibitory activity was determined according to the method reported by Jabeen et al. with slight modifications. In 96-well plate, 60 μL of 0.2 M phosphate buffer (pH = 6.8), 10 μL of the test sample (final concentration range of 100 to 1.56 μg/mL), and 10 μL of α-glucosidase solution (prepared in phosphate buffer to obtain 1 U/mL) were added. The mixture was incubated at 37 °C for 5 min and 20 μL of 4 mM p-nitrophenyl-α-D-glucopyranoside substrate were added. After 12 min of incubation at 37 °C, the released p-nitrophenol was measured at 405 nm using a spectrophotometer. The percentage inhibition of α-glucosidase activity was calculated using the equation: Inhibition (%) = (1 − (Aa − Ab)/(Ac − Ad)) × 100, in which Aa is the absorbance with test sample and enzyme, Ab is the absorbance with test samples but without enzyme, Ac is the absorbance with enzyme but without test sample, and Ad is the absorbance without test samples and enzymes.
as §1

[6] = test system: mushroom tyrosinase; details: cited from earlier work

Row | SMILES | IC50 [1] | Enzyme Inhibitory Activities Lipase IC50 [2] | IC50 [2] | mode of α-glucosidase inhibition [3] | IC50 [4] | IC50 [5] | Enzyme Inhibitory Activities α-Glucosidase IC50 [5] | inhibitory activity for mushroom tyrosinase [6] | tyrosinase inhibitory activity [6]
1 | O=c1cc(-c2ccc(O)cc2)oc2cc(O)cc(O)c12 [Apigenin (3), apigenin] | 386.3 ± 3.42 µM | active | 12.5 ± 2.04 µM | reversibly inhibit α-glucosidase in a noncompetitive manner | 23.1 ± 1.83 µM | 34.7 ± 1.78 µM | – | – | –
2 | C[C@@H]1O[C@@H](O[C@@H]2[C@@H](O)[C@H](OCCc3ccc(O)c(O)c3)O[C@H](CO)[C@H]2OC(=O)/C=C/c2ccc(O)c(O)c2)[C@H](O)[C@H](O)[C@H]1O [Verbascoside (1), verbascoside] | 22.03 ± 0.04 µM | inactive | – | – | 97.4 ± 2.48 µM | – | neither showed inhibitory activities | – | –
3 | O=C(/C=C/c1ccc(O)cc1)OC[C@H]1O[C@@H](Oc2cc(O)c3c(c2)OC(c2ccc(O)cc2)CC3=O)[C@H](O)[C@@H](O)[C@@H]1O (some centres unmarked) [6″-O-p-Coumaroylprunin (4), 6″-O-p-coumaroylprunin] | 186.2 ± 1.19 µM | active | 2.25 ± 0.17 µM | – | 136.1 ± 0.78 µM | 46.3 ± 2.92 µM | – | – | –
4 | Cc1c(C)c2c(c(C)c1O)CCC(C)(C(=O)O)O2 (centres unmarked) [Trolox, 6-Hydroxy-2,5,7,8-tetramethylchroman-2-carboxylic acid, reference compound] | 39.07 ± 0.31 µM | – | – | – | – | – | – | – | –
5 | COc1cc(C(=O)O)ccc1O [Vanillic acid (2), vanillic acid] | 217 ± 3.01 µM | inactive | – | – | – | – | neither showed inhibitory activities | did not show any inhibitory activity | weak
6 | OC[C@H]1O[C@@H](Oc2ccc(O)cc2)[C@H](O)[C@@H](O)[C@@H]1O [Arbutin, arbutin, reference compound] | – | – | – | – | 436 ± 3.71 µM | – | – | – | –
7 | CCCCCCCCCCCCCCCCOc1nc2ccc(C)cc2c(=O)o1 [Cetilistat, reference compound] | – | – | 18.4 ± 1.71 µM | – | – | – | – | – | –

Source: PMC6963822, “Phenolic Compounds from the Aerial Parts of Blepharis linariifolia Pers. and Their Free Radical Scavenging and Enzyme Inhibitory Activities” (Medicines, 2019)
